Experimental data reported in US20070020334A1, “Benzimidazole formulation” (priority 2005, published 2007).
Where two headings read alike, the source gives them in different places.

How the values were obtained:
[1] = cited from earlier work; for pKa2 / pKa3 / pKa: approximate; for pKa: pKa of the acid
[2] = Particle size by laser light scattering (Malvern); format: physicochemical; settings: raw material of Table 7
Experimental: Samples have been dried for minimum 12 hours at 40° C. prior to the measurements.

| SMILES | pKa2 [1] | pKa3 [1] | pKa [1] | further results |
| --- | --- | --- | --- | --- |
| N=C(N)NCCC[C@H](N)C(=O)O [Arginine] | pKa2: 9.1 | pKa3: 13.2 | – | pH ([1]; 100 g/L H2O): pH≈11.4 |
| O=C([O-])[O-].[Ca+2] [Calcium carbonate] | – | – | 10.3 | – |
| O=C([O-])[O-].[Na+].[Na+] [DiSodium carbonate] | – | – | 10.3 | – |
| N[C@@H](Cc1c[nH]cn1)C(=O)O [Histidine] | – | pKa3: 9.0 | – | pH ([1]; 10 g/L H2O): pH≈7.7 |
| NCCCC[C@H](N)C(=O)O [Lysine] | pKa2: 8.9 | – | – | – |
| COc1ccnc(C[S+]([O-])c2nc3ccc(OC(F)F)cc3[nH]2)c1OC (stereo not drawn) [Pantoprazole sodium sesquihydrate] | – | – | – | D(v; 0.5) [2]: 7 μm |
